The source of these data is article PMC4656030 (Journal of pharmacokinetics and pharmacodynamics, 2015).

As a reminder, the Ki is a dissociation constant, usually derived from enzyme kinetics or from competition with a known ligand. As usually defined, the Km is the substrate concentration at which the rate is half of its maximum.

Series [1] concerns the target T1, porcine kidney diamine oxidase (Sus scrofa, UniProt Q9TRC7).
T1 sequence (Q9TRC7 25-755): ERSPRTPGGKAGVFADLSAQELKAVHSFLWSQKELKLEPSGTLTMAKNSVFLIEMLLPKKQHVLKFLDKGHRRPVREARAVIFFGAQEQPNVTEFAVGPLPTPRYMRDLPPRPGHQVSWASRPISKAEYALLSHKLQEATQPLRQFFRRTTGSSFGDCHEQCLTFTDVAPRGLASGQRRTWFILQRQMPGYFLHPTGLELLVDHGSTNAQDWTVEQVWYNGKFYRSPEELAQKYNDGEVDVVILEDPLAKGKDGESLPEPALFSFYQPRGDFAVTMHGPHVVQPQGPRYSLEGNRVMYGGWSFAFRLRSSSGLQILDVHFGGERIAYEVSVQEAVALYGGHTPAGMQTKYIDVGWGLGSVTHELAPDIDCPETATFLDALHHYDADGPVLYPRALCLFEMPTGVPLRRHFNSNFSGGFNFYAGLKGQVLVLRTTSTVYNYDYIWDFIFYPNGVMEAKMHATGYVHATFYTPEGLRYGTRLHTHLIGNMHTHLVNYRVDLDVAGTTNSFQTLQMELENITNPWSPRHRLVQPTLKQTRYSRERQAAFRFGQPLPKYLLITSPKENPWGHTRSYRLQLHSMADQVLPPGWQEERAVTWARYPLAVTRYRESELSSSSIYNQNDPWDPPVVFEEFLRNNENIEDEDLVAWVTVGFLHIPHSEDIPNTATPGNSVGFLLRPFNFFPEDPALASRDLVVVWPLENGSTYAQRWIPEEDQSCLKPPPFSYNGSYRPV
Put plainly: Diamine oxidase spectrophotometric assay with putrescine as substrate. The series is classed as biochemical.

The conditions of series [2]: after a therapeutic dose; cited from earlier work.
For a further series, the target named is diamine oxidase. Conditions: read-out: Ki for diamine oxidase; cited from earlier work.
The test system of the next series is porcine diamine oxidase. Particulars: read-out: reported KM of putrescine; cited from earlier work.
Substrate in series [3]: NCCCCN
As to the kind of experiment: purified protein, by the assay type. Particulars: other: porcine DAO; pH 7.0; 37.0 °C.

For `N=C(N)NN` [aminoguanidine], in series [1] (inhibitor 100 μM, putrescine 100 μM as substrate), the “% inhibition of porcine DAO” value is “greater than 80%”.
Regarding `CN(C)C(=N)N=C(N)N` [metformin, Metformin], the “predicted concentration in the intestinal lumen” value in series [2] was 10 to 20 mM. In series [1], the Ki stood at 8.6 ± 3.1 mM. For the same molecule, the “type of DAO inhibition” value in series [1] (porcine DAO) was “mixed-type inhibition”.
`[H]/N=C(/N)N/C(=N/[H])NCCc1ccccc1` [phenformin]: on diamine oxidase, the Ki is 4 mM.
`NCCCCN` [putrescine]: in the series with porcine diamine oxidase, the Km was 350 µM.

B1: porcine kidney diamine oxidase (Sus scrofa) (protein)
chain: T1 sequence (Q9TRC7 25-755)
Consider B1, for which the Km in series [3] amounted to 0.33 ± 0.16 mM.
